In patent US20250041461A1, “[177LU] LUTETIUM-PSMA I&T COMPOSITION AND DOSIMETRY, KIT, METHOD OF MAKING, AND METHOD OF USING THEREOF” (Curium US LLC, priority 2023, published 2025):
Where “and” joins values, the source holds several entries; their conditions need not be identical. Equal entries are not always repeated.

Columns and labels:
[1] = numerous studies; cited from earlier work
[2] = Dosimetry sub-study, first 6 patients, cycle 1 (SPECT/CT, TIAC, OLINDA 2.2.3); format: in vivo, human; conditions: for projected cumulative absorbed dose to the kidneys after 6 cycles: 7.4 GBq per cycle, number of cycles x absorbed dose at cycle 1
Procedure: Six subjects were administered a target dose of 7.4 GBq (mean 7.52±0.16 GBq) of ^177Lu-PSMA-I&T. Following the infusion, subjects underwent single photon emission computed tomography (SPECT)/computed tomography (CT) imaging at four timepoints (4 h, 24 h, 48 h, 168 h). Image data were analysed to compute time integrated activity coefficients (TIAC) in each organ of interest and/or with appreciable and meaningful ^177Lu-PSMA-I&T activity above background which included kidneys, bladder, liver, lumbar vertebrae L2-L4, lacrimal glands, salivary glands, intestine and whole body. To compute subject-specific organ doses, organ-level TIAC data were entered into Organ Level Internal Dose Assessment, OLINDA 2.2.3 and resulting organ doses for each target organ and whole-body effective dose were collated and averaged.
Patients received SPECT/CT imaging (anatomical coverage included the salivary gland and extended through the pelvis) following the injection of 7.4 (+/−10%) GBq of ^177Lu-PSMA-I&T (detailed injected doses are reported). All patients completed the first treatment cycle and the acquisition of images was carried out without any protocol deviation.
The imaging data was analyzed using Invicro's VivoQuant software, a validated software used in a 21 CFR § 11-compliant workflow. The general quantification approach was based on the principles detailed in MIRD Pamphlet No. 16 (Siegel J, Thomas S, Stubbs J, et al. MIRD pamphlet no. 16: Techniques for quantitative radiopharmaceutical biodistribution data acquisition and analysis for use in human radiation dose estimates. J Nucl Med. 1999; 40:37S-61S and MIRD Primer for Absorbed Dose Calculations, Revised Ed. J Nucl Med. 1991), No 23 (Dewaraja Y K, Frey E C, Sgouros G, et al. MIRD pamphlet No. 23: quantitative SPECT for patient-specific 3-dimensional dosimetry in internal radionuclide therapy. J Nucl Med. 2012; 53(8):1310-1325), and No 26 (Ljungberg M, Celler A, Konijnenberg M W, et al. MIRD Pamphlet No. 26: Joint EANM/MIRD Guidelines for Quantitative ^177Lu SPECT Applied for Dosimetry of Radiopharmaceutical Therapy. J Nucl Med. 2016; 57(1):151-162), as appropriate.
Each SPECT image was co-registered with its corresponding CT. Image calibration was performed to convert the counts measured on the SPECT images to activity (Bq) (Ljungberg et al. MIRD Pamphlet No. 26: Joint EANM/MIRD Guidelines for Quantitative ^177Lu SPECT Applied for Dosimetry of Radiopharmaceutical Therapy. J Nucl Med. 2016; 57(1):151-162). The same SPECT/CT system was used in each patient for the entirety of the dosimetry study.
Regions of interest (kidneys, bladder, liver, lumbar vertebrae L2-L4, lacrimal glands, salivary glands and whole body) were drawn on each dataset by a trained image analyst. Lumbar vertebrae L2-L4 was delineated on the CT images (Hindorf C, Glatting G, Chiesa C, Linden O, Flux G, Committee ED. EANM Dosimetry Committee guidelines for bone marrow and whole-body dosimetry. Eur J Nucl Med Mol Imaging. 2010; 37(6):1238-1250) to derived red marrow doses. For kidneys, an ROI was drawn on the SPECT image to include all the uptake seen in the kidneys. Similarly for lacrimal glands, all the uptake observed on the SPECT image at the lacrimal glands location was segmented.
Time-activity curves of the activity in each ROI as a function of time were plotted. These curves were normalized by the known injected activity to arrive at units of fraction of injected activity. Calculations of time-integrated activity coefficient (TIAC, in units of hours) were performed for each region of interest listed above.
Clearance of the tracer was derived from a data-appropriate fit of each organ TAC. The curve fit was optimized using the Akaike information criterion (AIC) and checked visually by an image scientist. Depending on the shape of the TAC, the data was fitted with the sum of one, two or three exponentials or using a rise and fall model. […]

O=C([O-])CC[C@H](NC(=O)N[C@@H](CCCCNC(=O)CCCCCCC(=O)NCCCC[C@@H](NC(=O)[C@@H](Cc1ccccc1)NC(=O)[C@@H](Cc1ccc(O)c(I)c1)NC(=O)CC[C@H](C(=O)[O-])N1CCN(CC(=O)[O-])CCN(CC(=O)[O-])CCN(CC(=O)[O-])CC1)C(=O)[O-])C(=O)[O-])C(=O)[O-].[177Lu+3].[H+].[H+].[H+].[H+].[H+] [^177Lu-PSMA I&T, (3S,7S,26R,29R,32R,37R)-29-benzyl-32-(4-hydroxy-3-iodobenzyl)-5,13,20,28,31,34-hexaoxo-37-(4,7,10-tris(carboxymethyl)-1,4,7,10-tetraazacyclododecan-1-yl)-4,6,12,21,27,30,33-heptaazaheptatriacontane-1,3,7,26,37-pentacarboxylic acid; lutetium-177 (III)]
safety and tolerability [1]: safe and well tolerated
Absorbed Dose, Adrenals, Mean ([2]; 6 patients, cycle 1): 0.02 Gy/GBq
Absorbed Dose, Brain, Mean ([2]; 6 patients, cycle 1): 0.01 Gy/GBq
Absorbed Dose, Esophagus, Mean ([2]; 6 patients, cycle 1): 0.01 Gy/GBq
Absorbed Dose, Eyes, Mean ([2]; 6 patients, cycle 1): 0.01 Gy/GBq
Absorbed Dose, Gallbladder wall, Mean ([2]; 6 patients, cycle 1): 0.02 Gy/GBq
Absorbed Dose, Heart wall, Mean ([2]; 6 patients, cycle 1): 0.01 Gy/GBq
Absorbed Dose, Kidneys, Mean ([2]; 6 patients, cycle 1): 0.46 Gy/GBq
Absorbed Dose, Left colon, Mean ([2]; 6 patients, cycle 1): 0.39 Gy/GBq
Absorbed Dose, Liver, Mean ([2]; 6 patients, cycle 1): 0.03 Gy/GBq
Absorbed Dose, Lungs, Mean ([2]; 6 patients, cycle 1): 0.01 Gy/GBq
Absorbed Dose, Osteogenic cells, Mean ([2]; 6 patients, cycle 1): 0.02 Gy/GBq
Absorbed Dose, Pancreas, Mean ([2]; 6 patients, cycle 1): 0.02 Gy/GBq
Absorbed Dose, Prostate, Mean ([2]; 6 patients, cycle 1): 0.02 Gy/GBq
Absorbed Dose, Rectum, Mean ([2]; 6 patients, cycle 1): 0.37 Gy/GBq
Absorbed Dose, Red Marrow, Mean ([2]; 6 patients, cycle 1): 0.02 Gy/GBq
Absorbed Dose, Right colon, Mean ([2]; 6 patients, cycle 1): 0.21 Gy/GBq
Absorbed Dose, Salivary Glands, Mean ([2]; 6 patients, cycle 1): 0.10 Gy/GBq
Absorbed Dose, Small intestine, Mean ([2]; 6 patients, cycle 1): 0.05 Gy/GBq
Absorbed Dose, Spleen, Mean ([2]; 6 patients, cycle 1): 0.02 Gy/GBq
Absorbed Dose, Stomach Wall, Mean ([2]; 6 patients, cycle 1): 0.01 Gy/GBq
Absorbed Dose, Testes, Mean ([2]; 6 patients, cycle 1): 0.01 Gy/GBq
Absorbed Dose, Thymus, Mean ([2]; 6 patients, cycle 1): 0.01 Gy/GBq
Absorbed Dose, Thyroid, Mean ([2]; 6 patients, cycle 1): 0.01 Gy/GBq
Absorbed Dose, Total Body, Mean ([2]; 6 patients, cycle 1): 0.02 Gy/GBq
Absorbed Dose, Urinary Bladder wall, Mean ([2]; 6 patients, cycle 1): 0.37 Gy/GBq
absorbed dose, kidneys ([2]; 6 patients, cycle 1): 0.46±0.23 Gy/GBq
absorbed dose, lacrimal glands ([2]; 6 patients, cycle 1): 0.77±0.25 Gy/GBq
absorbed dose, left colon ([2]; 6 patients, cycle 1): 0.39±0.32 Gy/GBq
absorbed dose, rectum ([2]; 6 patients, cycle 1): 0.37±0.31 Gy/GBq
absorbed dose, right colon ([2]; 6 patients, cycle 1): 0.21±0.17 Gy/GBq
absorbed dose, salivary glands ([2]; 6 patients, cycle 1): 0.10±0.06 Gy/GBq
absorbed dose, urinary bladder wall ([2]; 6 patients, cycle 1): 0.37±0.20 Gy/GBq
Whole-body time integrated activity coefficient, mean ([2]; 6 patients, cycle 1, 7.4 GBq, SD 6.7): 16.6 h
projected cumulative absorbed dose to the kidneys after 6 cycles ([2]; 6 patients): 20.4±10.2 Gy
projected cumulative absorbed dose to the kidneys after 6 cycles ([2]; 6 patients, listed as 177Lu-PSMA-I&T): 20.4 Gy
risk of kidney toxicities with 6 treatment cycles ([2]; conclusion from dosimetry results): possible without the risk of kidney toxicities
Effective Dose Cycle 1 ([2]; individual patients (one per Subject ID)): 9.03E−02 mSv/MBq and 3.11E−02 mSv/MBq and 1.11E−01 mSv/MBq and 6.97E−02 mSv/MBq and 8.11E−02 mSv/MBq and 2.68E−02 mSv/MBq
Kidneys Absorbed Dose (Gy/GBq) ([2]; individual patients (one per Subject ID), cycle 1): 0.27 Gy/GBq and 0.22 Gy/GBq and 0.48 Gy/GBq and 0.64 Gy/GBq and 0.34 Gy/GBq and 0.81 Gy/GBq
Kidneys Absorbed Dose (Gy) ([2]; individual patients (one per Subject ID), cycle 1, actual injected dose): 2.03 Gy and 1.68 Gy and 3.62 Gy and 4.87 Gy and 2.56 Gy and 5.82 Gy
Kidneys Absorbed Dose (Gy) Assuming 7.4 GBq per cycle ([2]; individual patients (one per Subject ID), one cycle): 4.8 Gy and 2.5 Gy and 6.0 Gy and 2.0 Gy and 1.7 Gy and 3.6 Gy
Extrapolation of Absorbed Dose to 6 Cycles (Gy) Assuming 7.4 GBq per cycle ([2]; kidneys, individual patients (one per Subject ID)): 28.5 Gy and 15.0 Gy and 35.8 Gy and 11.8 Gy and 9.9 Gy and 21.3 Gy
Extrapolation of Absorbed Dose to 6 Cycles (Gy) Assuming 7.4 GBq per cycle, mean ([2]; kidneys, mean of 6 patients): 20.4 Gy
Kidneys Absorbed Dose (Gy), Mean ([2]; mean of 6 patients, cycle 1): 3.43 Gy
Kidneys Absorbed Dose (Gy/GBq), Mean ([2]; mean of 6 patients, cycle 1): 0.46 Gy/GBq
Whole Body TIAC (time integrated activity coefficient), Mean ([2]; mean of 6 patients, cycle 1): 16.6 h
Kidneys Absorbed Dose (Gy) Assuming 7.4 GBq per cycle, mean ([2]; mean of 6 patients, one cycle): 3.4 Gy
